Results as given in US11214803B2, “Modulators of YAP1 expression” (Ionis Pharmaceuticals, Inc., priority 2019, dated 2022).
Strand notation (5' to 3'): a small letter for the sugar, then the base; units joined by * are phosphorothioate-linked, units joined directly phosphodiester-linked; [ ] holds rarer units or linkages, { } end groups; capitals alone tell only the bases. e = 2'-O-(2-methoxyethyl) (MOE); k = constrained ethyl (cEt); [5mC] = 5-methylcytosine; d = 2'-deoxy (DNA); m = 2'-O-methyl

Tested on: Yap1 mRNA
Test: Antisense inhibition of human Yap1 in SNU-449 cells by modified oligonucleotides, single dose (Example 5, RTS36584)
Type: cell-based
Summary of the method: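 Values are Yap1 mRNA as percent of untreated control cells, measured by quantitative real-time RT-PCR using RTS36584 and normalised to total RNA by RIBOGREEN. Cells were SNU-449, dosed by free uptake at 2,000 nM for approximately 48 hours.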

[1] = Table 43 experiment, SNU-449 cells, 10,000 cells per well, free uptake, 2,000 nM, approximately 48 hours, RTS36584, Yap1 mRNA normalized to RIBOGREEN, relative to untreated control cells
[2] = Table 44 experiment, SNU-449 cells, 10,000 cells per well, free uptake, 2,000 nM, approximately 48 hours, RTS36584, Yap1 mRNA normalized to RIBOGREEN, relative to untreated control cells
[3] = Table 39, SNU-449 cells, 10,000 cells per well, free uptake, 2,000 nM oligonucleotide, approx. 48 hours, RTS36584, normalized to RIBOGREEN, Yap1 mRNA relative to untreated control
[4] = Table 52, Yap1 mRNA, modified oligonucleotides targeting SEQ ID NO: 1 and 2
[5] = Table 42 (separate experiment), SNU-449 cells, 10,000 cells per well, free uptake, 2,000 nM modified oligonucleotide, approximately 48 hours, RTS36584, normalized to RIBOGREEN, Yap1 mRNA relative to untreated control cells
[6] = Yap1 mRNA, percent of untreated control, modified oligonucleotides targeting SEQ ID NO: 1 and 2, Table 47
[7] = Table 46, Yap1 mRNA as percent of untreated control, SNU-449 cells, single dose
[8] = Table 45, Yap1 mRNA as percent of untreated control, SNU-449 cells, single dose
[9] = Table 40 (separate experiment), SNU-449 cells, 10,000 cells per well, free uptake, 2,000 nM oligonucleotide, approx. 48 hours, RTS36584, normalized to RIBOGREEN, Yap1 mRNA relative to untreated control
[10] = Table 49, Yap1 mRNA level relative to untreated control, modified oligonucleotides targeting SEQ ID NO.: 1 and 2
[11] = Table 41, SNU-449 cells, 10,000 cells per well, free uptake, 2,000 nM modified oligonucleotide, approximately 48 hours, RTS36584, normalized to RIBOGREEN, Yap1 mRNA relative to untreated control cells
[12] = Table 51, Yap1 mRNA remaining as percent of untreated control (UT), SNU-449 cells, single dose

1198471 (antisense kA*kT*dA*dT*dT*dA*dG*dA*dG*dT*dA*eT*kG*eT*kG*eG) [Compound 1198471]
YAP1 (% UTC) [1]: 21 % UTC

1198906 (kT*kA*dT*dA*dT*dT*dA*dG*dA*dG*dT*kA*dT*kG*dT*kG; antisense) [Compound 1198906]
YAP1 (% UTC) [2]: 56 % UTC

1198435 (kA*dT*dG*dT*dA*dA*dT*dA*dT*dT*dG*k[5mC]*eA*kA*eT*k[5mC]; antisense) [Compound 1198435]
YAP1 (% UTC) [3]: 57 % UTC

1198249 (kT*kT*dA*dT*dA*dT*dG*dG*dT*dT*dT*eT*eG*eT*kG*kT; antisense) [Compound 1198249]
YAP1 (% UTC) [1]: 42 % UTC

1200820 (kG*kG*kA*dA*dG*mA*dT*d[5mC]*dT*dG*dA*dA*dA*k[5mC]*kT*k[5mC]; antisense) [Compound 1200820]
YAP1 (% UT) [4]: 24 % UT

1095481 (antisense kT*kG*dA*dG*dG*dT*dA*dT*dA*dA*d[5mC]*dT*kG*eG*kG*e[5mC]) [Compound 1095481]
YAP1 (% UTC) [5]: 21 % UTC

1198880 (kA*kA*d[5mC]*dT*dT*dT*dA*dA*dA*dG*dT*kG*eT*kA*eT*kG; antisense) [Compound 1198880]
YAP1 (% UT) [6]: 98 % UT

1198814 (antisense kA*kG*dA*dG*dT*dA*dT*dG*dT*dG*dG*k[5mC]*eA*kA*eT*kA) [Compound 1198814]
YAP1 (% UT) [7]: 13 % UT

1198967 (kT*kA*dA*dG*dG*dT*dT*dT*d[5mC]*d[5mC]*d[5mC]*kA*dG*kA*dT*kT; antisense) [Compound 1198967]
YAP1 (% UTC) [8]: 65 % UTC

1198722 (kA*eT*kA*dT*dG*dG*dA*dA*dA*dT*dT*dG*eT*e[5mC]*kT*k[5mC]; antisense) [Compound 1198722]
YAP1 (% UTC) [9]: 48 % UTC

1197197 (antisense kT*k[5mC]*kA*dG*dA*dT*dT*dT*dA*dG*dG*dA*dT*kG*k[5mC]*kA) [Compound 1197197]
YAP1 (% UT) [6]: 20 % UT

1198581 (antisense kA*kG*kT*dG*d[5mC]*dT*dT*dT*dG*dG*dA*dA*kG*kA*kT*e[5mC]) [Compound 1198581]
YAP1 (% UT) [10]: 42 % UT

1198803 (antisense kT*eT*kA*dG*dA*d[5mC]*dT*dA*dA*dG*dT*dA*eA*eG*kG*kT) [Compound 1198803]
YAP1 (% UTC) [9]: 62 % UTC

1198821 (kT*k[5mC]*dT*dA*dT*dA*dT*dT*dA*dG*dA*kG*eT*kA*eT*kG; antisense) [Compound 1198821]
YAP1 (% UT) [7]: 62 % UT

1198305 (kG*kA*kG*dG*dT*dA*dT*dA*dA*d[5mC]*dT*dG*kG*eG*k[5mC]*eA; antisense) [Compound 1198305]
YAP1 (% UT) [10]: 78 % UT

1198559 (antisense kT*k[5mC]*kT*dA*dT*dA*dT*dT*dA*dG*dA*dG*kT*kA*kT*eG) [Compound 1198559]
YAP1 (% UT) [10]: 55 % UT

1200844 (kA*kA*k[5mC]*dT*d[5mC]*mU*dT*dA*dT*dA*dT*dG*dG*kT*kT*kT; antisense) [Compound 1200844]
YAP1 (% UT) [4]: 132 % UT

1198497 (antisense kA*kG*dG*dA*dT*dG*d[5mC]*dA*dT*dG*dG*eT*kT*eT*kT*eT) [Compound 1198497]
YAP1 (% UTC) [2]: 22 % UTC

1198705 (kT*kA*dA*dG*dG*dT*dT*dT*d[5mC]*d[5mC]*d[5mC]*dA*kG*eA*kT*eT; antisense) [Compound 1198705]
YAP1 (% UTC) [5]: 70 % UTC

1198658 (kA*kA*dG*d[5mC]*dA*d[5mC]*dT*dT*dT*dT*dA*d[5mC]*kA*eT*kT*eA; antisense) [Compound 1198658]
YAP1 (% UTC) [11]: 62 % UTC

1197230 (antisense kT*kG*kG*dA*mA*dA*dT*dT*dG*dT*d[5mC]*dT*d[5mC]*kA*kT*kG) [Compound 1197230]
YAP1 (% UT) (Table 50, Yap1 mRNA remaining as percent of untreated control (UT), SNU-449 cells, single dose): 29 % UT

1200797 (kA*kT*kT*dA*dG*mA*dG*dT*dA*dT*dG*dT*dG*kG*k[5mC]*kA; antisense) [Compound 1200797]
YAP1 (% UT) [12]: 11 % UT

1198368 (kA*kG*kA*d[5mC]*dT*dA*dA*dG*dT*dA*dA*dG*kG*eT*kT*eT; antisense) [Compound 1198368]
YAP1 (% UT) [10]: 79 % UT

1198412 (kT*dT*dA*dG*dG*dA*dT*dG*d[5mC]*dA*dT*kG*eG*kT*eT*kT; antisense) [Compound 1198412]
YAP1 (% UTC) [3]: 17 % UTC

1198410 (kA*dT*dA*dG*dT*dG*d[5mC]*dT*dT*dT*dG*kG*eA*kA*eG*kA; antisense) [Compound 1198410]
YAP1 (% UTC) [3]: 48 % UTC

1197263 (kG*kA*k[5mC]*dA*mA*d[5mC]*dT*d[5mC]*dT*dT*dA*dT*dA*kT*kG*kG) [Compound 1197263]
YAP1 (% UT) [12]: 91 % UT

1198796 (antisense kA*eG*kT*dA*dA*dG*dG*dT*dT*dT*d[5mC]*d[5mC]*e[5mC]*eA*kG*kA) [Compound 1198796]
YAP1 (% UTC) [9]: 32 % UTC

1198431 (kA*dA*dT*dA*dT*dT*dG*d[5mC]*dA*dA*dT*k[5mC]*eT*kG*eT*k[5mC]; antisense) [Compound 1198431]
YAP1 (% UTC) [3]: 35 % UTC

1198417 (k[5mC]*dA*dG*dA*dT*dT*dT*dA*dG*dG*dA*kT*eG*k[5mC]*eA*kT; antisense) [Compound 1198417]
YAP1 (% UTC) [3]: 40 % UTC

1198975 (kT*kT*dA*dG*dA*d[5mC]*dT*dA*dA*dG*dT*kA*dA*kG*dG*kT; antisense) [Compound 1198975]
YAP1 (% UTC) [8]: 52 % UTC

1197309 (kG*kT*kA*dA*mU*dA*dT*dT*dG*d[5mC]*dA*dA*dT*k[5mC]*kT*kG; antisense) [Compound 1197309]
YAP1 (% UT) [12]: 11 % UT

1198316 (kG*kG*kA*dA*dG*dA*dT*d[5mC]*dT*dG*dA*dA*kA*e[5mC]*kT*e[5mC]; antisense) [Compound 1198316]
YAP1 (% UT) (Table 48, Yap1 mRNA level relative to untreated control, modified oligonucleotides targeting SEQ ID NO.: 1 and 2): 49 % UT

1198550 (antisense kA*kT*kA*dT*dG*dG*dA*dA*dA*dT*dT*dG*kT*k[5mC]*kT*e[5mC]) [Compound 1198550]
YAP1 (% UT) [10]: 17 % UT

1198267 (kA*kG*dT*dG*dT*dA*dT*dG*dT*d[5mC]*dA*eG*eA*eA*kG*kA; antisense) [Compound 1198267]
YAP1 (% UTC) [1]: 7 % UTC

1198820 (kT*kA*dT*dA*dT*dT*dA*dG*dA*dG*dT*kA*eT*kG*eT*kG; antisense) [Compound 1198820]
YAP1 (% UT) [7]: 62 % UT

1198784 (antisense kT*eA*kT*dG*dT*dA*dA*dT*dA*dT*dT*dG*e[5mC]*eA*kA*kT) [Compound 1198784]
YAP1 (% UTC) [9]: 94 % UTC

1198223 (k[5mC]*kT*dT*dT*dT*dA*d[5mC]*dA*dT*dT*dA*eG*eG*eA*kA*k[5mC]) [Compound 1198223]
YAP1 (% UTC) [5]: 94 % UTC

1198688 (antisense kA*kT*dA*dT*dT*dG*d[5mC]*dA*dA*dT*d[5mC]*dT*kG*eT*k[5mC]*eT) [Compound 1198688]
YAP1 (% UTC) [11]: 48 % UTC

1198282 (kA*kG*dA*d[5mC]*dT*dA*dA*dG*dT*dA*dA*eG*eG*eT*kT*kT; antisense) [Compound 1198282]
YAP1 (% UTC) [1]: 58 % UTC
